We go through two molecules from US6809065B2, “Herbicide containing substituted pyrazole derivative as active ingredient” (SDS Biotech K.K., priority 2001, dated 2004).

Series [1] relates to soybean (Glycine max). Put plainly: Upland field foliage treatment (Test Example 1), crop. The format is in vivo. Particulars: foliage treatment 14th day after sowing, 1 kg active ingredient per hectare, evaluated 21st day, lower index = higher safety. Put shortly:
(§1)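 Weeds and crops were sown in upland soil under about 1 cm cover, and a wettable powder diluted in water was sprayed on the foliage 14 days after sowing at 1 kg active ingredient per hectare. Scoring was done 21 days after application on an index scale, where higher weed scores mean stronger herbicidal effect and lower crop scores mean greater crop safety.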

For series [2], the system named is wheat (Triticum aestivum). Described as above. Type of series: in vivo. The note with it: foliage treatment 14th day after sowing, 1 kg active ingredient per hectare, evaluated 21st day, lower index = higher safety. Put shortly:
as §1

The subject of series [3] is soybean (Glycine max). Put plainly: Upland soil treatment (Test Example 2), crop. Particulars: soil surface treatment next day after sowing, 1 kg active ingredient per hectare, evaluated 21st day, lower index = higher safety. The format is in vivo. Summed up: (§2)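 Applies a soil-surface, pre-emergence spray of 1 kg active ingredient/ha (wettable powder in water) one day after sowing; weed control and crop injury are rated on an index scale three weeks later.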

Series [4] concerns wheat (Triticum aestivum). Put plainly: Upland soil treatment (Test Example 2), crop. Type of series: in vivo. The note with it: soil surface treatment next day after sowing, 1 kg active ingredient per hectare, evaluated 21st day, lower index = higher safety. Put shortly: as §2
For another series, the system named is Echinochloa spp. Put plainly: Paddy field treatment (Test Example 3). The format is in vivo, Echinochloa crusgalli. Particulars: paddy pot, submerged 4 cm, dropped on water surface 10th day after transplantation, 1 kg active ingredient per hectare, evaluated 21st day. Put shortly:
(§3)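 Weeds sown in puddled paddy soil under 4 cm water, with two-leaf Koshihikari rice transplanted at 3 cm depth. On day 10 after transplanting, wettable powder applied to the water surface at 1 kg active ingredient per hectare. Herbicidal effect and crop safety scored on an index 21 days later.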

In another series the test system is Ammannia multiflora. Put plainly: Paddy field treatment (Test Example 3). The format is in vivo. Particulars: paddy pot, submerged 4 cm, dropped on water surface 10th day after transplantation, 1 kg active ingredient per hectare, evaluated 21st day. Put shortly:
as §3

A further series concerns Monochoria vaginalis. Put plainly: Paddy field treatment (Test Example 3). Type of series: in vivo. Particulars: paddy pot, submerged 4 cm, dropped on water surface 10th day after transplantation, 1 kg active ingredient per hectare, evaluated 21st day. Put shortly: as §3
In another series the test system is Scirpus juncoides. The series is described as follows: Paddy field treatment (Test Example 3). The note with it: paddy pot, submerged 4 cm, dropped on water surface 10th day after transplantation, 1 kg active ingredient per hectare, evaluated 21st day. The format is in vivo. Summed up: as §3
The subject of series [5] is Digitaria adscendens. The series is described as follows: Upland soil treatment (Test Example 2). The format is in vivo. The note with it: soil surface treatment next day after sowing, wettable powder, 1 kg active ingredient per hectare, evaluated 21st day after application. Summed up:
as §2

Series [6] relates to Setaria viridis. Put plainly: Upland soil treatment (Test Example 2). Type of series: in vivo. The note with it: soil surface treatment next day after sowing, wettable powder, 1 kg active ingredient per hectare, evaluated 21st day after application. Summed up: as §2
The test system of series [7] is Chenopodium album. Put plainly: Upland soil treatment (Test Example 2). The format is in vivo. Particulars: soil surface treatment next day after sowing, wettable powder, 1 kg active ingredient per hectare, evaluated 21st day after application. Put shortly:
as §2

Series [8] concerns Stellaria media. Put plainly: Upland soil treatment (Test Example 2). The format is in vivo. The note with it: soil surface treatment next day after sowing, wettable powder, 1 kg active ingredient per hectare, evaluated 21st day after application. Put shortly: as §2
In series [9] the test system is rice (Oryza sative, variety: Koshihikari). Put plainly: Paddy field treatment (Test Example 3), crop. The format is in vivo, Oryza sativa. The note with it: transplanted rice two-leaf period, water surface treatment 10th day after transplantation, 1 kg active ingredient per hectare, evaluated 21st day, lower index = higher safety. Put shortly:
as §3

Series [10] concerns Digitaria adscendens. Put plainly: Upland field foliage treatment (Test Example 1). The format is in vivo. Particulars: foliage treatment 14th day after sowing, wettable powder, 1 kg active ingredient per hectare, evaluated 21st day after application. Summed up:
as §1

Series [11] has as its system Setaria viridis. The series is described as follows: Upland field foliage treatment (Test Example 1). The format is in vivo. The note with it: foliage treatment 14th day after sowing, wettable powder, 1 kg active ingredient per hectare, evaluated 21st day after application. Put shortly: as §1
Series [12] relates to Chenopodium album. The series is described as follows: Upland field foliage treatment (Test Example 1). Particulars: foliage treatment 14th day after sowing, wettable powder, 1 kg active ingredient per hectare, evaluated 21st day after application. The format is in vivo. Summed up:
as §1

Series [13] relates to Stellaria media. The series is described as follows: Upland field foliage treatment (Test Example 1). The format is in vivo. Particulars: foliage treatment 14th day after sowing, wettable powder, 1 kg active ingredient per hectare, evaluated 21st day after application. Put shortly:
as §1

Turning to `COC=C(Cn1nc(-c2cccc(C)c2)c(Cl)c1C)C(=O)OC` [Compound 17], the “Herbicidal activity Glycine max” value with soybean (Glycine max) [1] was 0 (herbicidal effect of not less than 0% by weight and less than 10% by weight); in the series with soybean (Glycine max) [3], 0 (herbicidal effect of not less than 0% by weight and less than 10% by weight). The “Herbicidal activity Triticum aestivum” value in [2] is 0 (herbicidal effect of not less than 0% by weight and less than 10% by weight); in [4] it was 0 (herbicidal effect of not less than 0% by weight and less than 10% by weight). Further, the “Herbicidal activity Echinochloa spp.” value in the series with Echinochloa spp. is given as 5 (herbicidal effect of not less than 90% by weight). Besides, in the series with Ammannia multiflora, the “Herbicidal activity Ammannia multiflora” value is recorded as 5 (herbicidal effect of not less than 90% by weight). In addition, in the series with Monochoria vaginalis, the “Herbicidal activity Monochoria vaginalis” value is 5 (herbicidal effect of not less than 90% by weight). In the series on Scirpus juncoides, the “Herbicidal activity Scirpus juncoides” value is 4 (herbicidal effect of not less than 70% by weight and less than 90% by weight). For the same molecule, the “Herbicidal activity Digitaria adscendens” value in the series with Digitaria adscendens [5] is 4 (herbicidal effect of not less than 70% by weight and less than 90% by weight); in the series on Digitaria adscendens [10] it was 4 (herbicidal effect of not less than 70% by weight and less than 90% by weight). In addition, the “Herbicidal activity Setaria viridis” value in the series with Setaria viridis [6] is 4 (herbicidal effect of not less than 70% by weight and less than 90% by weight); with Setaria viridis [11] it was 5 (herbicidal effect of not less than 90% by weight). For the same molecule, the “Herbicidal activity Chenopodium album” value in the series with Chenopodium album [7] is 4 (herbicidal effect of not less than 70% by weight and less than 90% by weight); in the series with Chenopodium album [12] it was 5 (herbicidal effect of not less than 90% by weight). In addition, the “Herbicidal activity Stellaria media” value in the series with Stellaria media [8] is 4 (herbicidal effect of not less than 70% by weight and less than 90% by weight); in the series with Stellaria media [13] it was 5 (herbicidal effect of not less than 90% by weight). Also, in series [9], the “Herbicidal activity Oryza sativa” value was 0 (herbicidal effect of not less than 0% by weight and less than 10% by weight).

In the case of `COC=C(Cn1nc(-c2ccccc2Cl)c(Cl)c1C)C(=O)OC` [Compound 18], the “Herbicidal activity Glycine max” value in the series on soybean (Glycine max) [1] is 0 (herbicidal effect of not less than 0% by weight and less than 10% by weight); in the series with soybean (Glycine max) [3] it was 0 (herbicidal effect of not less than 0% by weight and less than 10% by weight). For the same molecule, the “Herbicidal activity Triticum aestivum” value in series [2] is 0 (herbicidal effect of not less than 0% by weight and less than 10% by weight); in series [4], 0 (herbicidal effect of not less than 0% by weight and less than 10% by weight). Moreover, the “Herbicidal activity Echinochloa spp.” value with Echinochloa spp. was 5 (herbicidal effect of not less than 90% by weight). For the same molecule, the “Herbicidal activity Ammannia multiflora” value in the series on Ammannia multiflora is on record as 5 (herbicidal effect of not less than 90% by weight). Besides, in the series on Monochoria vaginalis, the “Herbicidal activity Monochoria vaginalis” value is 5 (herbicidal effect of not less than 90% by weight). Moreover, the “Herbicidal activity Scirpus juncoides” value with Scirpus juncoides is reported as 5 (herbicidal effect of not less than 90% by weight). The “Herbicidal activity Digitaria adscendens” value in the series with Digitaria adscendens [5] and in the series on Digitaria adscendens [10] was 5 (herbicidal effect of not less than 90% by weight) throughout. For the same molecule, the “Herbicidal activity Setaria viridis” value is 4 (herbicidal effect of not less than 70% by weight and less than 90% by weight) in the series with Setaria viridis [6]; 4 (herbicidal effect of not less than 70% by weight and less than 90% by weight) in the series with Setaria viridis [11]. In addition, the “Herbicidal activity Chenopodium album” value with Chenopodium album [7] and with Chenopodium album [12] was 5 (herbicidal effect of not less than 90% by weight) each time. Besides, the “Herbicidal activity Stellaria media” value with Stellaria media [8] and in the series on Stellaria media [13] was 5 (herbicidal effect of not less than 90% by weight) in each case. For the same molecule, the “Herbicidal activity Oryza sativa” value in [9] was 1 (herbicidal effect of not less than 10% by weight and less than 30% by weight).
